Our source for the inhibition and IC50 values is patent US20200165257A1, “INHIBITORS OF PHOSPHOINOSITIDE 3-KINASE AND HISTONE DEACETYLASE FOR TREATMENT OF CANCER” (THE UNITED STATES OF AMERICA, AS REPRESENTED BY THE …, priority 2017, published 2020).

For test [1], the system named is Ovarian Cell Line NCI/ADR-RES. Description: cells. Format: cell-based. The settings on record: Homo sapiens, single dose, 10 uM compound concentration, read-out: inhibition of proliferation.
The target of the next test is PI3Kδ (Homo sapiens, UniProt O00329). Briefly: PI3Kδ kinase assay (HTRF). Format: biochemical. The settings on record: symbols ++ / +; read-out: PI3Kδ Inhibition Activity (IC50 class). On the procedure:
The PIP3 product is detected by displacement of biotin-PIP3 from an energy transfer complex consisting of Europium labeled anti-GST monoclonal antibody, a GST-tagged pleckstrin homology (PH) domain, biotinylated PIP3 and Streptavidin-Allophycocyanin (APC). […] The PIP3 product formed by PI 3-Kinase(h) activity displaces biotin-PIP3 from the complex resulting in a loss of energy transfer, and thus, a decrease in signal.
First, the kinase reaction with PIP2 substrate is carried out in the presence of ATP, and the reaction is quenched with stop Solution, and then, finally detect by adding Detection Mixture followed by incubation.
HEPES 50 mM (pH7.0), NaN3 0.02%, BSA 0.01%, Orthovanadate 0.1 mM, 1% DMSO.
Detection buffer: HEPES 10 mM (pH7.0), BSA 0.02%, KF 0.16 M, EDTA 4 mM.
10 μM PIP2 substrate (PI(4,5)P2)
10 μM ATP under standard conditions
1. Prepare substrate in freshly prepared Reaction Buffer.
2. Deliver kinase into the substrate solution and gently mix.
3. Deliver compounds in 100% DMSO into the kinase reaction mixture by Acoustic technology (Echo550; nanoliter range), incubate for 10 min at room temperature.
4. Deliver ATP into the reaction mixture to initiate the reaction.
5. Incubate for 30 min at 30° C.
6. Quench the reaction with Stop Solution.
7. Add Detection Mixture, and incubate for overnight.
The emission ratio is converted into μM PIP3 production based on PIP3 standard curves.
The nonlinear regression to obtain the standard curve and IC50 values are performed using Graphpad Prism software.

For test [2], the system named is Melanoma Cell Line UACC-62. Briefly: cells. Format: cell-based. The settings on record: Homo sapiens; UACC-62; single dose, 10 uM compound concentration; read-out: inhibition of proliferation.
The test system of test [3] is Leukemia Cell Line CCRF-CEM. Description: cells. Format: cell-based. Conditions: Homo sapiens, single dose, 10 uM compound concentration, read-out: inhibition of proliferation.
Test [4] deals with Breast Cancer Cell Line HS 578T. Format: cell-based. The settings on record: Homo sapiens; HS 578T; single dose, 10 uM compound concentration; read-out: inhibition of proliferation.
Test [5] deals with Leukemia Cell Line RPMI-8226. It counts as cell-based. The settings on record: Homo sapiens; RPMI-8226; single dose, 10 uM compound concentration; read-out: inhibition of proliferation.
In a further test the test system is Ovarian Cell Line IGROV1. It counts as cell-based. The settings on record: Homo sapiens, IGROV-1; IGROV1; single dose, 10 uM compound concentration; read-out: inhibition of proliferation.

Molecules are shown by their SMILES.

Chain of PI3Kδ (O00329 whole entry): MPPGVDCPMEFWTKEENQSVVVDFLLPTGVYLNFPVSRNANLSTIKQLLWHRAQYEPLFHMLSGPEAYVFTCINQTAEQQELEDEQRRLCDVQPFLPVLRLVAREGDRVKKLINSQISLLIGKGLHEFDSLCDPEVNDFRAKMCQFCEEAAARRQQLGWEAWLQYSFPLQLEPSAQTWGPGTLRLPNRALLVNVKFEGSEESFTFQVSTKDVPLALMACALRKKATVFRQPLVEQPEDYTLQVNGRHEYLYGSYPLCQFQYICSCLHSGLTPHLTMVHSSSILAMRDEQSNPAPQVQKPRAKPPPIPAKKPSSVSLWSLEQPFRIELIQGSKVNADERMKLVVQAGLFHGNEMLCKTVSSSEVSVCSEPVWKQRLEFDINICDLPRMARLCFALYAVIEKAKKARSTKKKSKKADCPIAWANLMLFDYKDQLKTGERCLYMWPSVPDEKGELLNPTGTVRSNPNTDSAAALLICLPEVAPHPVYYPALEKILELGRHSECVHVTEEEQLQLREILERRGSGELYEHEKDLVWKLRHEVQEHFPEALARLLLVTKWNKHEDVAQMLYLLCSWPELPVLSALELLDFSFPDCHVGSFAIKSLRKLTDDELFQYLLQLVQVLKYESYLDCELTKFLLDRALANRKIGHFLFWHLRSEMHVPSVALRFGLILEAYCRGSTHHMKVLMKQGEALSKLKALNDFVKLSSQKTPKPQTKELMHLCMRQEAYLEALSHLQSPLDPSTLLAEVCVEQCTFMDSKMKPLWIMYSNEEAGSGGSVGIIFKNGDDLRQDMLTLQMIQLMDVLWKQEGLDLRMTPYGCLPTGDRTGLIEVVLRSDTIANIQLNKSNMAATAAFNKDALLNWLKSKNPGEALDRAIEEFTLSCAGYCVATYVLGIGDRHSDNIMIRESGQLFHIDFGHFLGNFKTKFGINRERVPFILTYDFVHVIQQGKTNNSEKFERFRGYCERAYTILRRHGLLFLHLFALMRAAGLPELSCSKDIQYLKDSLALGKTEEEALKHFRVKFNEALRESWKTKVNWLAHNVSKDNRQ
Chain of PI3Kδ (P27986 whole entry partner): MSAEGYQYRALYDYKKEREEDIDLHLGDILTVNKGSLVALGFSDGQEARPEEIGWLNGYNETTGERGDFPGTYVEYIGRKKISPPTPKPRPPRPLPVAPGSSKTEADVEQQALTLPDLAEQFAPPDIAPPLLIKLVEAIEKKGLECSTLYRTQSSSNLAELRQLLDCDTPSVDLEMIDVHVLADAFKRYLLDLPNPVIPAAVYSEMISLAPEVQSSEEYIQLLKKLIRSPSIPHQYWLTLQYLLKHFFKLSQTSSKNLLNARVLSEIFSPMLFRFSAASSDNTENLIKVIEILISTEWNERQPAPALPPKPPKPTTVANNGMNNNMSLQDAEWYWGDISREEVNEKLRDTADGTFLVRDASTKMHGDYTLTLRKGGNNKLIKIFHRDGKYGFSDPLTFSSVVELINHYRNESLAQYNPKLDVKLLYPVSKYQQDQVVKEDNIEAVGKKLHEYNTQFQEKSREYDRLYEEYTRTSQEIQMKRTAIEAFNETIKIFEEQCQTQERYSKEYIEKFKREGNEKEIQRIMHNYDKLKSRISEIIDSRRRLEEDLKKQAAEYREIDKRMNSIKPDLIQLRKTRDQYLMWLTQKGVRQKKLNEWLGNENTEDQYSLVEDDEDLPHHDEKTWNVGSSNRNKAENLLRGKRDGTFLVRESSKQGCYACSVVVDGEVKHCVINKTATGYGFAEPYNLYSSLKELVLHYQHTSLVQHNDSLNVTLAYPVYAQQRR

With `CC[C@H](Nc1nc(N)nc(C)c1C#N)c1nc2cccc(CN(C)c3ncc(C(=O)NO)cn3)c2c(=O)n1-c1ccccc1` [LII, (S)-2-(((2-(1-((2-amino-5-cyano-6-methylpyrimidin-4-yl)amino)propyl)-4-oxo-3-phenyl-3,4-dihydroquinazolin-5-yl)methyl)(methyl)amino)-N-hydroxypyrimidine-5-carboxamide], the inhibition at 10 µM is 25 to 50% in test [1]; greater than 50% in test [2]; greater than 50% in test [3]; greater than 50% in test [4]; greater than 50% in test [5]; greater than 50% in the test on Ovarian Cell Line IGROV1. Moreover, the half-maximal inhibitory concentration (IC50) on PI3Kδ is less than 100 nM.
